In PubChem BioAssay AID200 (DTP/NCI, 2004):
Where “and” joins values, the source holds several entries; their conditions need not be identical. Equal values may be shown once. Toxic doses and inconclusive results are not listed. Where a SMILES comes first, the peptide text is derived from it.

System: B6C3F1 mice, B16 melanoma ip, median survival T/C
Experiment: NCI In Vivo Anticancer Drug Screen. Data for tumor model B16 Melanoma (intraperitoneal) in B6C3F1 mice
Conditions: endpoint: median survival time, higher = longer survival
Outline: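 Mice bearing transplanted tumor were dosed with compound or vehicle, and survival was recorded. Activity is expressed as the treated-group measurement (T) divided by the vehicle control measurement (C).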

[1] = dose: 6.25 mg/kg/injection, schedule: Q01DX009 (ip), vehicle: saline
[2] = dose: 12.5 mg/kg/injection, schedule: Q01DX009 (ip), vehicle: saline
[3] = dose: 25.0 mg/kg/injection, schedule: Q01DX008 (ip), vehicle: saline
[4] = dose: 25.0 mg/kg/injection, schedule: Q01DX009 (ip), vehicle: saline
[5] = dose: 50.0 mg/kg/injection, schedule: Q01DX008 (ip), vehicle: saline
[6] = dose: 50.0 mg/kg/injection, schedule: Q01DX009 (ip), vehicle: saline
[7] = dose: 100.0 mg/kg/injection, schedule: Q01DX008 (ip), vehicle: saline
[8] = dose: 1.56 mg/kg/injection, schedule: Q01DX009 (ip), vehicle: saline with Tween-80
[9] = dose: 3.12 mg/kg/injection, schedule: Q01DX009 (ip), vehicle: saline with Tween-80
[10] = dose: 6.25 mg/kg/injection, schedule: Q01DX009 (ip), vehicle: saline with Tween-80
[11] = dose: 12.5 mg/kg/injection, schedule: Q01DX009 (ip), vehicle: saline with Tween-80
[12] = dose: 25.0 mg/kg/injection, schedule: Q01DX009 (ip), vehicle: saline with Tween-80
[13] = dose: 50.0 mg/kg/injection, schedule: Q01DX009 (ip), vehicle: saline with Tween-80
[14] = dose: 12.5 mg/kg/injection, schedule: Q01DX009 (ip), vehicle: water
[15] = dose: 25.0 mg/kg/injection, schedule: Q01DX009 (ip), vehicle: water
[16] = dose: 50.0 mg/kg/injection, schedule: Q01DX009 (ip), vehicle: water
[17] = dose: 100.0 mg/kg/injection, schedule: Q01DX009 (ip), vehicle: saline
[18] = dose: 200.0 mg/kg/injection, schedule: Q01DX009 (ip), vehicle: saline

With `Oc1ccccc1C=NCCC[N-]CCCN=Cc1ccccc1O.[Co]` the T/C (dose: 6.25 mg/kg/injection, schedule: Q01DX008 (ip), vehicle: saline) was 97 % of control, the T/C [1] was 101 % of control and the T/C (dose: 12.5 mg/kg/injection, schedule: Q01DX008 (ip), vehicle: saline) was 107 % of control. For the same compound, the T/C [2] was 107 % of control, the T/C [3] was 96 % of control and the T/C [4] was 113 % of control. For the same compound, the T/C [5] was 86 % of control, the T/C [6] was 105 % of control and the T/C [7] was 95 % of control.

In the case of `CCOC1=Cc2c(oc3c(C(C)(C)C)cc(OCC)cc23)OC(C(C)(C)C)=C1`, the T/C [8] is reported as 97 % of control and 107 % of control, the T/C [9] is reported as 97 % of control and 104 % of control and the T/C [10] is reported as 102 % of control. The T/C [11] was 97 % of control and 106 % of control, the T/C [12] was 113 % of control and 91 % of control and the T/C [13] was 89 % of control and 101 % of control.

For `C=C1C(=O)OC2CC(C)C3C4OC4C(O)C3(C)C(O)C12` (stereo not given), the T/C (dose: 0.4 mg/kg/injection, schedule: Q01DX009 (ip), vehicle: saline) was 104 % of control, the T/C (dose: 0.8 mg/kg/injection, schedule: Q01DX009 (ip), vehicle: saline) was 110 % of control and the T/C (dose: 1.56 mg/kg/injection, schedule: Q01DX009 (ip), vehicle: saline) was 108 % of control. The T/C (dose: 3.13 mg/kg/injection, schedule: Q01DX009 (ip), vehicle: saline) was 124 % of control.

`CC(=O)OC1C2CCC3C(C)(O)C4CC(O)C(C)(C)C4(O)C(O)CC13CC2(C)O` (stereo not given) was tested, and the T/C (dose: 0.25 mg/kg/injection, schedule: Q01DX009 (ip), vehicle: Klucel (hydroxypropylcellulose) (HPC)) was 111 % of control, the T/C (dose: 0.5 mg/kg/injection, schedule: Q01DX009 (ip), vehicle: Klucel (hydroxypropylcellulose) (HPC)) was 100 % of control and the T/C (dose: 1.0 mg/kg/injection, schedule: Q01DX009 (ip), vehicle: Klucel (hydroxypropylcellulose) (HPC)) was 121 % of control.

`COc1ccc(OC)c(Cc2cnc3nc(N)nc(N)c3c2C)c1` was tested, and the T/C (dose: 6.25 mg/kg/injection, schedule: Q01DX009 (ip), vehicle: water) was 106 % of control, the T/C [14] was 104 % of control and the T/C [15] was 99 % of control. For the same compound, the T/C [16] was 93 % of control.

`COc1ccc(N=C(C)C2C(=O)c3ccccc3C2=O)cc1` was tested, and the T/C (dose: 50.0 mg/kg/injection, schedule: Q01DX009 (ip), vehicle: DMSO) was 103 % of control, the T/C (dose: 100.0 mg/kg/injection, schedule: Q01DX009 (ip), vehicle: DMSO) was 103 % of control and the T/C (dose: 200.0 mg/kg/injection, schedule: Q01DX009 (ip), vehicle: DMSO) was 105 % of control. For the same compound, the T/C (dose: 400.0 mg/kg/injection, schedule: Q01DX009 (ip), vehicle: DMSO) was 116 % of control and the T/C (dose: 800.0 mg/kg/injection, schedule: Q01DX009 (ip), vehicle: DMSO) was 97 % of control.

In the case of `CCCCCCCC(=O)[O][Hg][CH2]C1COC([CH2][Hg][O]C(=O)CCCCCCC)CO1` (stereo not given), the T/C [8] is reported as 95 % of control and 102 % of control, the T/C [9] is reported as 96 % of control and 103 % of control and the T/C [10] is reported as 94 % of control and 101 % of control. The T/C [11] was 93 % of control and 97 % of control and the T/C [12] was 91 % of control.

For `CN(C)[C@@H]1C(=O)C(C(N)=O)=C(O)[C@@]2(O)C(=O)C3=C(O)c4c(O)ccc(Cl)c4[C@@](C)(O)[C@H]3C[C@@H]12`, the T/C [2] was 97 % of control, the T/C [14] was 109 % of control and the T/C [4] was 97 % of control. For the same compound, the T/C [15] was 105 % of control, the T/C [6] was 101 % of control and the T/C [16] was 104 % of control. The T/C [17] was 94 % of control, the T/C (dose: 100.0 mg/kg/injection, schedule: Q01DX009 (ip), vehicle: water) was 100 % of control and the T/C [18] was 98 % of control. For the same compound, the T/C (dose: 200.0 mg/kg/injection, schedule: Q01DX009 (ip), vehicle: water) was 106 % of control.

With `CCOC(=O)NC1CCc2cc(OC)c(OC)c(OC)c2-c2ccc(OC)c(=O)cc21` (stereo not given) the T/C (dose: 1.5 mg/kg/injection, schedule: Q01DX009 (ip), vehicle: Klucel (hydroxypropylcellulose) (HPC)) was 152 % of control, the T/C (dose: 2.5 mg/kg/injection, schedule: Q01DX009 (ip), vehicle: Klucel (hydroxypropylcellulose) (HPC)) was 150 % of control and 152 % of control and the T/C (dose: 4.16 mg/kg/injection, schedule: Q01DX009 (ip), vehicle: Klucel (hydroxypropylcellulose) (HPC)) was 154 % of control.

With `C[n+]1c(-c2cccc(OCCCCCCCOc3cccc(-c4c5cc(N)ccc5c5ccc(N)cc5[n+]4C)c3)c2)c2cc(N)ccc2c2ccc(N)cc21` the T/C (dose: 0.02 mg/kg/injection, schedule: Q01DX009 (ip), vehicle: water) was 98 % of control and the T/C (dose: 0.04 mg/kg/injection, schedule: Q01DX009 (ip), vehicle: water) was 109 % of control.

For `CO[C@H]1C[C@H](O[C@H]2CC[C@@]3(C)[C@H](CC[C@@H]4[C@@H]3CC[C@]3(C)[C@@H](C5=CC(=O)OC5)CC[C@]43O)C2)O[C@H](C)[C@H]1O`, the T/C (dose: 1.9 mg/kg/injection, schedule: Q01DX009 (ip), vehicle: Klucel (hydroxypropylcellulose) (HPC)) was 88 % of control, the T/C (dose: 2.8 mg/kg/injection, schedule: Q01DX009 (ip), vehicle: Klucel (hydroxypropylcellulose) (HPC)) was 100 % of control and the T/C (dose: 4.3 mg/kg/injection, schedule: Q01DX009 (ip), vehicle: Klucel (hydroxypropylcellulose) (HPC)) was 102 % of control. For the same compound, the T/C (dose: 6.4 mg/kg/injection, schedule: Q01DX009 (ip), vehicle: Klucel (hydroxypropylcellulose) (HPC)) was 94 % of control.

With `O=CC(NC(=O)N(CCF)N=O)C(O)C(O)C(O)CO` (stereo not given) the T/C (dose: 30.0 mg/kg/injection, schedule: Q01DX001 (ip), vehicle: saline) was 169 % of control, the T/C (dose: 60.0 mg/kg/injection, schedule: Q01DX001 (ip), vehicle: saline) was 210 % of control and the T/C (dose: 120.0 mg/kg/injection, schedule: Q01DX001 (ip), vehicle: saline) was 204 % of control.

In the case of `NCC(=O)NC(CC(N)=O)C(=O)O` (stereo not given) (HELM PEPTIDE1{G.[NC(=O)CC(N[*:1])C(=O)O]}$$$$V2.0), the T/C [6] is reported as 98 % of control, the T/C [17] is reported as 91 % of control and the T/C [18] is reported as 93 % of control.

For `O=C1NC(O)CCN1C1OC(CO)C(O)C1O` (stereo not given), the T/C [3] was 104 % of control, the T/C [5] was 99 % of control and the T/C [7] was 104 % of control. For the same compound, the T/C (dose: 200.0 mg/kg/injection, schedule: Q01DX008 (ip), vehicle: saline) was 108 % of control, the T/C (dose: 400.0 mg/kg/injection, schedule: Q01DX008 (ip), vehicle: saline) was 108 % of control and the T/C (dose: 800.0 mg/kg/injection, schedule: Q01DX008 (ip), vehicle: saline) was 96 % of control.

With `O=c1c(O)c(O)c1=O.[NH2-].[NH2-].[NH2-].[NH2-].[NH2-].[Ru+5]` the T/C (dose: 3.12 mg/kg/injection, schedule: Q01DX009 (ip), vehicle: saline) was 110 % of control, the T/C (dose: 3.75 mg/kg/injection, schedule: Q01DX009 (ip), vehicle: saline) was 104 % of control and the T/C [1] was 120 % of control. For the same compound, the T/C (dose: 10.42 mg/kg/injection, schedule: Q01DX009 (ip), vehicle: saline) was 122 % of control and the T/C [4] was 87 % of control.

For `Cn1c2nc(=O)n(-c3ccccc3)c(=O)c-2nc2c1CCCC2`, the T/C (dose: 6.25 mg/kg/injection, schedule: Q01DX008 (ip), vehicle: saline with Tween-80) was 96 % of control, the T/C [10] was 119 % of control and the T/C (dose: 12.5 mg/kg/injection, schedule: Q01DX008 (ip), vehicle: saline with Tween-80) was 104 % of control. For the same compound, the T/C [11] was 107 % of control, the T/C (dose: 25.0 mg/kg/injection, schedule: Q01DX008 (ip), vehicle: saline with Tween-80) was 101 % of control and the T/C [12] was 107 % of control. The T/C (dose: 50.0 mg/kg/injection, schedule: Q01DX008 (ip), vehicle: saline with Tween-80) was 98 % of control, the T/C [13] was 101 % of control and the T/C (dose: 100.0 mg/kg/injection, schedule: Q01DX009 (ip), vehicle: saline with Tween-80) was 101 % of control and 102 % of control. The T/C (dose: 200.0 mg/kg/injection, schedule: Q01DX009 (ip), vehicle: saline with Tween-80) was 96 % of control and 97 % of control.

For `CC(C)=CC(=O)OC1C2C(C)=CC(=O)C(O)C2(C)C2C3(O)OCC24C(CC(=O)OC14)C(C)C3O` (stereo not given), the T/C (dose: 0.25 mg/kg/injection, schedule: Q01DX009 (ip), vehicle: distilled water + Tween-80) was 163 % of control and 168 % of control and the T/C (dose: 0.5 mg/kg/injection, schedule: Q01DX009 (ip), vehicle: distilled water + Tween-80) was 150 % of control and 160 % of control and 168 % of control.

In the case of `Cc1ccc(NCCN(C)C)c2c(=O)c3cc(O)ccc3sc12`, the T/C (dose: 12.0 mg/kg/injection, schedule: Q01DX009 (ip), vehicle: Klucel (hydroxypropylcellulose) (HPC)) is reported as 164 % of control, the T/C (dose: 25.0 mg/kg/injection, schedule: Q01DX009 (ip), vehicle: Klucel (hydroxypropylcellulose) (HPC)) is reported as 183 % of control and the T/C (dose: 50.0 mg/kg/injection, schedule: Q01DX009 (ip), vehicle: Klucel (hydroxypropylcellulose) (HPC)) is reported as 87 % of control.

In the case of `C=C1CCOC2(C(O)C(C)(O)CO)NC(=O)C1(O)NC2=O` (stereo not given), the T/C [6] is reported as 97 % of control, the T/C [17] is reported as 95 % of control and the T/C [18] is reported as 99 % of control.
